# According to ChEMBL document CHEMBL1240381, “Spread of a chromosomal cefixime-resistant penA gene among different Neisseria gonorrhoeae lineages” (2010):
# What was measured:
# Format in all cases: functional
# Neisseria gonorrhoeae [1] = test: Antimicrobial activity against Neisseria gonorrhoeae isolate NG9912 expressing chromosomal cefixime-resistant penA gene by agar dilution method
# Neisseria gonorrhoeae [2] = test: Antimicrobial activity against Neisseria gonorrhoeae isolate NG0303 expressing chromosomal cefixime-resistant penA gene by agar dilution method
# Neisseria gonorrhoeae [3] = test: Antimicrobial activity against Neisseria gonorrhoeae isolate NG0003 expressing chromosomal cefixime-resistant penA gene by agar dilution method
# Neisseria gonorrhoeae [4] = test: Antimicrobial activity against Neisseria gonorrhoeae isolate NG0402 expressing chromosomal cefixime-resistant penA gene by agar dilution method
# Neisseria gonorrhoeae [5] = test: Antimicrobial activity against Neisseria gonorrhoeae isolate NG0513 expressing chromosomal cefixime-resistant penA gene by agar dilution method
# Neisseria gonorrhoeae [6] = test: Antimicrobial activity against Neisseria gonorrhoeae isolate NG0202 expressing chromosomal cefixime-resistant penA gene by agar dilution method
# Neisseria gonorrhoeae [7] = test: Antimicrobial activity against Neisseria gonorrhoeae isolate NG0207 expressing chromosomal cefixime-resistant penA gene by agar dilution method
# Neisseria gonorrhoeae [8] = test: Antimicrobial activity against Neisseria gonorrhoeae isolate NG9914 expressing chromosomal cefixime-resistant penA gene by agar dilution method
# Neisseria gonorrhoeae [9] = test: Antimicrobial activity against Neisseria gonorrhoeae isolate NG0311 expressing chromosomal cefixime-resistant penA gene by agar dilution method
# Neisseria gonorrhoeae [10] = test: Antimicrobial activity against Neisseria gonorrhoeae isolate NGON03-092 expressing chromosomal cefixime-resistant penA gene by agar dilution method
# Neisseria gonorrhoeae [11] = test: Antimicrobial activity against Neisseria gonorrhoeae isolate NG0401 expressing chromosomal cefixime-resistant penA gene by agar dilution method
# Neisseria gonorrhoeae [12] = test: Antimicrobial activity against Neisseria gonorrhoeae isolate NGON03-115 expressing chromosomal cefixime-resistant penA gene by agar dilution method
# Neisseria gonorrhoeae [13] = test: Antimicrobial activity against Neisseria gonorrhoeae isolate NG0110 expressing chromosomal cefixime-resistant penA gene by agar dilution method
# Neisseria gonorrhoeae [14] = test: Antimicrobial activity against Neisseria gonorrhoeae isolate NG0304 expressing chromosomal cefixime-resistant penA gene by agar dilution method
# Neisseria gonorrhoeae [15] = test: Antimicrobial activity against Neisseria gonorrhoeae isolate NG0410 expressing chromosomal cefixime-resistant penA gene by agar dilution method
# Neisseria gonorrhoeae [16] = test: Antimicrobial activity against Neisseria gonorrhoeae isolate NG0503 expressing chromosomal cefixime-resistant penA gene by agar dilution method
# Neisseria gonorrhoeae [17] = test: Antimicrobial activity against Neisseria gonorrhoeae isolate NG9806 expressing chromosomal cefixime-resistant penA gene by agar dilution method
# Neisseria gonorrhoeae [18] = test: Antimicrobial activity against Neisseria gonorrhoeae isolate NGON03-079 expressing chromosomal cefixime-resistant penA gene by agar dilution method
# Neisseria gonorrhoeae [19] = test: Antimicrobial activity against Neisseria gonorrhoeae isolate NG0008 expressing chromosomal cefixime-resistant penA gene by agar dilution method
# Neisseria gonorrhoeae [20] = test: Antimicrobial activity against Neisseria gonorrhoeae isolate NG0511 expressing chromosomal cefixime-resistant penA gene by agar dilution method
# Neisseria gonorrhoeae [21] = test: Antimicrobial activity against Neisseria gonorrhoeae isolate NG0109 expressing chromosomal cefixime-resistant penA gene by agar dilution method
# Neisseria gonorrhoeae [22] = test: Antimicrobial activity against Neisseria gonorrhoeae isolate NG0404 expressing chromosomal cefixime-resistant penA gene by agar dilution method
# Neisseria gonorrhoeae [23] = test: Antimicrobial activity against Neisseria gonorrhoeae isolate NG0111 expressing chromosomal cefixime-resistant penA gene by agar dilution method
# Neisseria gonorrhoeae [24] = test: Antimicrobial activity against Neisseria gonorrhoeae isolate NG0508 expressing chromosomal cefixime-resistant penA gene by agar dilution method
# Neisseria gonorrhoeae [25] = test: Antimicrobial activity against Neisseria gonorrhoeae isolate NG0201 expressing chromosomal cefixime-resistant penA gene by agar dilution method
# Neisseria gonorrhoeae [26] = test: Antimicrobial activity against Neisseria gonorrhoeae isolate NG0514 expressing chromosomal cefixime-resistant penA gene by agar dilution method
# Neisseria gonorrhoeae [27] = test: Antimicrobial activity against Neisseria gonorrhoeae isolate NG9913 expressing chromosomal cefixime-resistant penA gene by agar dilution method
# Neisseria gonorrhoeae [28] = test: Antimicrobial activity against Neisseria gonorrhoeae isolate NG0202 expressing chromosomal cefixime-resistant penA gene at 0.031 ug/ml after 16 hrs
# Neisseria gonorrhoeae [29] = test: Antimicrobial activity against Neisseria gonorrhoeae isolate NG0206 expressing chromosomal cefixime-resistant penA gene by agar dilution method
# Neisseria gonorrhoeae [30] = test: Antimicrobial activity against Neisseria gonorrhoeae isolate NG0512 expressing chromosomal cefixime-resistant penA gene by agar dilution method
# Neisseria gonorrhoeae [31] = test: Antimicrobial activity against Neisseria gonorrhoeae isolate NGON07-002 expressing chromosomal cefixime-resistant penA gene by agar dilution method
# Neisseria gonorrhoeae [32] = test: Antimicrobial activity against Neisseria gonorrhoeae isolate NG9812 expressing chromosomal cefixime-resistant penA gene by agar dilution method
# Neisseria gonorrhoeae [33] = test: Antimicrobial activity against Neisseria gonorrhoeae isolate NG0509 expressing chromosomal cefixime-resistant penA gene by agar dilution method
# Neisseria gonorrhoeae [34] = test: Antimicrobial activity against Neisseria gonorrhoeae isolate NG0312 expressing chromosomal cefixime-resistant penA gene by agar dilution method
# Neisseria gonorrhoeae [35] = test: Antimicrobial activity against Neisseria gonorrhoeae isolate NG9811 expressing chromosomal cefixime-resistant penA gene by agar dilution method
# Neisseria gonorrhoeae [36] = test: Antimicrobial activity against Neisseria gonorrhoeae isolate NG0205 expressing chromosomal cefixime-resistant penA gene by agar dilution method
# Neisseria gonorrhoeae [37] = test: Antimicrobial activity against Neisseria gonorrhoeae isolate NG0204 expressing chromosomal cefixime-resistant penA gene by agar dilution method
# Neisseria gonorrhoeae [38] = test: Antimicrobial activity against Neisseria gonorrhoeae isolate NG0003 expressing chromosomal cefixime-resistant penA gene at […] after 16 hrs
# Neisseria gonorrhoeae [39] = test: Antimicrobial activity against Neisseria gonorrhoeae isolate NG9911 expressing chromosomal cefixime-resistant penA gene by agar dilution method
# Neisseria gonorrhoeae [40] = test: Antimicrobial activity against Neisseria gonorrhoeae isolate NG0002 expressing chromosomal cefixime-resistant penA gene by agar dilution method
# Neisseria gonorrhoeae [41] = test: Antimicrobial activity against Neisseria gonorrhoeae isolate NG0202 expressing chromosomal cefixime-resistant penA gene at 2 ug/ml after 16 hrs
# Neisseria gonorrhoeae [42] = test: Antimicrobial activity against Neisseria gonorrhoeae isolate NG0003 expressing chromosomal cefixime-resistant penA gene at 2 ug/ml after 16 hrs
smiles,measurement,setting,value
C=CC1=C(C(=O)O)N2C(=O)[C@@H](NC(=O)/C(=N\OCC(=O)O)c3csc(N)n3)[C@H]2SC1 [CEFIXIME],MIC,Neisseria gonorrhoeae [1],0.25 µg/mL
same,MIC,Neisseria gonorrhoeae [2],0.25 µg/mL
same,MIC,Neisseria gonorrhoeae [3],0.25 µg/mL
same,MIC,Neisseria gonorrhoeae [4],0.031 µg/mL
same,MIC,Neisseria gonorrhoeae [5],0.5 µg/mL
same,MIC,Neisseria gonorrhoeae [6],0.004 µg/mL
same,MIC,Neisseria gonorrhoeae [7],0.25 µg/mL
same,MIC,Neisseria gonorrhoeae [8],0.25 µg/mL
same,MIC,Neisseria gonorrhoeae [9],0.5 µg/mL
same,MIC,Neisseria gonorrhoeae [10],0.25 µg/mL
same,MIC,Neisseria gonorrhoeae [11],0.5 µg/mL
same,MIC,Neisseria gonorrhoeae [12],0.5 µg/mL
same,MIC,Neisseria gonorrhoeae [13],0.25 µg/mL
same,MIC,Neisseria gonorrhoeae [14],1 µg/mL
same,MIC,Neisseria gonorrhoeae [15],0.5 µg/mL
same,MIC,Neisseria gonorrhoeae [16],0.25 µg/mL
same,MIC,Neisseria gonorrhoeae [17],0.25 µg/mL
same,MIC,Neisseria gonorrhoeae [18],0.5 µg/mL
same,MIC,Neisseria gonorrhoeae [19],0.25 µg/mL
same,MIC,Neisseria gonorrhoeae [20],0.25 µg/mL
same,MIC,Neisseria gonorrhoeae [21],0.25 µg/mL
same,MIC,Neisseria gonorrhoeae [22],0.5 µg/mL
same,MIC,Neisseria gonorrhoeae [23],0.25 µg/mL
same,MIC,Neisseria gonorrhoeae [24],0.25 µg/mL
same,MIC,Neisseria gonorrhoeae [25],0.25 µg/mL
same,MIC,Neisseria gonorrhoeae [26],0.25 µg/mL
same,MIC,Neisseria gonorrhoeae [27],0.25 µg/mL
same,CFU,Neisseria gonorrhoeae [28],<10 mL⁻¹
same,MIC,Neisseria gonorrhoeae [29],0.25 µg/mL
same,MIC,Neisseria gonorrhoeae [30],0.25 µg/mL
same,MIC,Neisseria gonorrhoeae [31],0.25 µg/mL
same,MIC,Neisseria gonorrhoeae [32],0.25 µg/mL
same,MIC,Neisseria gonorrhoeae [33],0.25 µg/mL
same,MIC,Neisseria gonorrhoeae [34],0.5 µg/mL
same,MIC,Neisseria gonorrhoeae [35],0.25 µg/mL
same,MIC,Neisseria gonorrhoeae [36],0.25 µg/mL
same,MIC,Neisseria gonorrhoeae [37],0.25 µg/mL
same,CFU,Neisseria gonorrhoeae [38],1.01 ×10⁸ /ml
same,MIC,Neisseria gonorrhoeae [39],0.25 µg/mL
same,MIC,Neisseria gonorrhoeae [40],0.25 µg/mL
O=C(O)c1cn(C2CC2)c2cc(N3CCNCC3)c(F)cc2c1=O [CIPROFLOXACIN],MIC,Neisseria gonorrhoeae [3],0.031 µg/mL
same,MIC,Neisseria gonorrhoeae [6],8 µg/mL
same,CFU,Neisseria gonorrhoeae [41],0.71 ×10⁸ /ml
same,CFU,Neisseria gonorrhoeae [42],<10 mL⁻¹
